In one assay the test system is HCMV wild-type. The experiment in a line: HCMV yield assay. In kind it is cell-based, human cytomegalovirus. To be noted: human foreskin fibroblasts; for IC50: Human betaherpesvirus 5, Fibroblast, read-out: IC50 Ug/ml HCMV. As for the experimental part: Yield assay. Monolayer cultures of human foreskin fibroblasts are infected with HCMV wild-type, typically at a multiplicity of infection equal to 0.2, in the presence of inhibitor compound (varying concentrations). At three days post-infection, total virus produced in these cultures (i.e. virus yield) is assessed by harvesting and titering the virus in 12-well plates of cultured human foreskin fibroblasts (done in the absence of inhibitor). Plaques are quantified at 2 weeks post-infection. An inhibitor of HCMV is identified by the reduction in titer of virus yield in the presence, compared to the titer in the absence of compound. In this assay, the relative anti-HCMV activity of an inhibitor is typically determined by calculating the IC50 or IC90 value, that is, the amount of compound required to reduce the virus yield by 50% or 90%, respectively. Table I describes IC50 data for compounds tested against HCMV.

A further assay relates to HSV-1. The experiment in a line: HSV Antiviral (ELISA) Assay. In kind it is cell-based, herpes simplex virus type 1. To be noted: Vero cells, HSV-1; for IC50: Human alphaherpesvirus 1, Vero, read-out: IC50 Ug/ml HSV. As for the experimental part: Vero cells (ATCC #CCL-81) are plated on 96-well tissue culture plates at 3.5×10^4 cells per 100 μl tissue culture DMEM (Dulbecco's modified Eagle media) supplemented with 2% fetal bovine serum (FBS) in each well. After overnight incubation @ 37° C. (in 5% CO2) and 30 minutes prior to infection with HSV-1 (multiplicity of infection equal to 0.006), cells are either untreated, or treated with test compound (multiple concentrations) or reference standard drug control. After approximately 24 hours post-infection incubation @ 37° C. (in 5% CO2), cells are fixed for ELISA assay. The primary antibody is murine anti-HSV glycoprotein D monoclonal primary antibody and the secondary antibody is goat anti-mouse IgG linked to β-galactosidase. Thus the extent of viral replication is determined by assessing β-galactosidase activity by quantifying the generation of the 4-methyl umbelliferone fluorescent cleavage product after addition of the methyl umbelliferyl-β-D-galactoside (Sigma #M1633) substrate on a microfluorimeter (365 nm for excitation and 450 nm for emission). Antiviral activity (IC50) of the test compound is determined by comparing the flourescence obtained in absence of compound to that obtained in the presence of compound.

The subject of another assay is VZV strain Ellen. The experiment in a line: VZV Antiviral (ELISA) Assay. In kind it is cell-based, varicella-zoster virus. To be noted: human foreskin fibroblast cells; for IC50 / inhibition at 10 µg/mL: Human alphaherpesvirus 3, Fibroblast; for IC50: read-out: IC50 Ug/ml VZV; for inhibition at 10 µg/mL: read-out: % inhibition 10 ug/ml VZV, 10 ug/ml. As for the experimental part: For the generation of stock VZV to be used in the assay, VZV strain Ellen (ATCC #VR-1367) is used to infect human foreskin fibroblast (HFF) cells at low multiplicity (less than 0.1) and incubated overnight at 37° C. in 5% CO2. After the overnight incubation, the mixture of uninfected and VZV-infected HFF infected cells are then harvested and added to each well of 96-well plates (3.5×10^4 cells in 100 μl DMEM supplemented with 2% FBS) which contain test compound or the reference standard drug control (in 100 μl DMEM supplemented with 2% FBS per well). These cells are incubated for three days at 37° C. in 5% CO2, then fixed for ELISA assay. The primary antibody is murine anti-VZV glycoprotein II monoclonal antibody (Applied Biosystems, Inc. #13-145-100) and the secondary antibody is goat anti-mouse IgG linked to β-galactosidase. Thus the extent of viral replication is determined by assessing β-galactosidase activity by quantifying the generation of the 4-methyl umbelliferone fluorescent cleavage product after addition of the methyl umbelliferyl-β-D-galactoside (Sigma #M1633) substrate on a microfluorimeter (365 nm for excitation and 450 nm for emission). Antiviral activity (IC50) of the test compound is determined by comparing the flourescence obtained in absence of compound to that obtained in the presence of compound.

In brackets after ≈: the same amount, converted by molar mass. Some results are limits rather than exact numbers.

Consider `COc1cc(N2CCCC2)c(NC(=S)Nc2ccc(NC(C)=O)cc2)cc1Cl` [Example 228, N-{4-[3-(5-Chloro-4-methoxy-2-pyrrolidin-1-yl-phenyl)-thioureido]-phenyl}-acetamide], for which the results for the IC50 in the assay on HCMV wild-type, in the assay on HSV-1 and in the assay on VZV strain Ellen were greater than 10 µg/mL, 3 µg/mL (≈ 7.16 µM) and greater than 10 µg/mL, respectively. For the same compound, in the assay on VZV strain Ellen, the inhibition at 10 µg/mL was determined as 35%.

Take `COc1cc(OCCO)c(Cl)cc1NC(=S)Nc1ccc(NC(C)=O)cc1` [Example 215, N-(4-{3-[5-Chloro-4-(2-hydroxy-ethoxy)-2-methoxy-phenyl]-thioureido}-phenyl)-acetamide]: the IC50 with HCMV wild-type was greater than 10 µg/mL; with HSV-1, greater than 50 µg/mL; in the assay on VZV strain Ellen, greater than 10 µg/mL. The inhibition at 10 µg/mL with VZV strain Ellen came out at 30%.

For the compound `COc1cc(OC)c(NC(=S)Nc2ccc(NC(C)=O)cc2C(F)(F)F)cc1Cl` [Example 358, N-{4-[3-(5-Chloro-2,4-dimethoxy-phenyl)-thioureido]-3-trifluoromethyl-phenyl}-acetamide], the IC50 in the assay on HCMV wild-type is greater than 10 µg/mL; in the assay on HSV-1, 2 µg/mL (≈ 4.47 µM); in the assay on VZV strain Ellen, greater than 10 µg/mL. Also, the inhibition at 10 µg/mL with VZV strain Ellen worked out at 31%.

For the compound `CCOc1cc(OC)c(Cl)cc1NC(=S)Nc1ccc(NC(C)=O)cc1` [Example 831, N-{4-[3-(5-Chloro-2-ethoxy-4-methoxy-phenyl)-thioureido]-phenyl}-acetamide], the IC50 with HCMV wild-type is greater than 10 µg/mL; with HSV-1, 3 µg/mL (≈ 7.62 µM); in the assay on VZV strain Ellen, greater than 10 µg/mL. Further, the inhibition at 10 µg/mL in the assay on VZV strain Ellen is 11%.

Consider `COC(=O)COc1cc(OC)c(NC(=S)Nc2ccc(NC(C)=O)cc2)cc1Cl` [Example 217, {4-[3-(4-Acetylamino-phenyl)-thioureido]-2-chloro-5-methoxy-phenoxy}-acetic acid methyl ester], for which the IC50 in the assay on HCMV wild-type was greater than 10 µg/mL; in the assay on HSV-1, greater than 50 µg/mL; with VZV strain Ellen it was greater than 10 µg/mL. In addition, the inhibition at 10 µg/mL in the assay with VZV strain Ellen turned out to be 10%.

`CSc1ccc(NC(=S)Nc2ccc(NC(C)=O)cc2)cc1Cl` [Example 840, N-{4-[3-(3-Chloro-4-methylsulfanyl-phenyl)-thioureido]-phenyl}-acetamide]: the IC50 in the assay on HCMV wild-type was 0.4 µg/mL (≈ 1.09 µM); with HSV-1 it was 1.5 µg/mL (≈ 4.1 µM); in the assay with VZV strain Ellen, greater than 10 µg/mL. In addition, the inhibition at 10 µg/mL in the assay with VZV strain Ellen is 0%.

Regarding `CC(=O)Nc1ccc(NC(=S)Nc2cc(Cl)c(OCC(N)=O)c(Cl)c2)cc1` [Example 882, 2-{4-[3-(4-Acetylamino-phenyl)-thioureido]-2,6-dichloro-phenoxy}-acetamide], the IC50 in the assay on HCMV wild-type is greater than 50 µg/mL; in the assay on HSV-1 it was greater than 50 µg/mL; in the assay on VZV strain Ellen it was greater than 10 µg/mL. Also, the inhibition at 10 µg/mL in the assay with VZV strain Ellen was 15%.

On to `COc1cc(OCC(=O)OC(C)(C)C)c(Cl)cc1NC(=S)Nc1ccc(NC(C)=O)cc1` [Example 216, {4-[3-(4-Acetylamino-phenyl)-thioureido]-2-chloro-5-methoxy-phenoxy}-acetic acid tert-butyl ester], for which the IC50 in the assay on HCMV wild-type is greater than 10 µg/mL; with HSV-1, 35 µg/mL (≈ 72.9 µM); with VZV strain Ellen, greater than 10 µg/mL. Besides, the inhibition at 10 µg/mL with VZV strain Ellen turned out to be 23%.

In the case of `CC(=O)Nc1ccc(NC(=S)Nc2cc(Cl)c(OCC#N)c(Cl)c2)cc1` [Example 886, N-(4-{3-[3,5-Dichloro-4-(2-nitrilo-ethoxy)-phenyl]-thioureido}-phenyl)-acetamide], the IC50 is 10 µg/mL (≈ 24.4 µM) in the assay with HCMV wild-type, 25 µg/mL (≈ 61.1 µM) in the assay with HSV-1 and greater than 15 µg/mL in the assay on VZV strain Ellen. In addition, the inhibition at 10 µg/mL in the assay with VZV strain Ellen is 50%.

With “N-{4-[3-(4-Acetylamino-phenyl)-thioureido]-2-chloro-phenyl}-2-pyrrolidin-1-yl-acetamide [Example 415]”, the “IC50 Ug/ml HCMV” value in the assay with HCMV wild-type is given as greater than 10 Ug/ml. In the assay on HSV-1, the “IC50 Ug/ml HSV” value is reported as greater than 10 Ug/ml. In the assay with VZV strain Ellen, the “% inhibition 10 ug/ml VZV” value worked out at 26% and the “IC50 Ug/ml VZV” value came out at 4.5 Ug/ml.

`CC(=O)Nc1ccc(NC(=S)Nc2cc(Cl)c(O)c(Cl)c2C)cc1` [Example 129, N-{4-[3-(3,5-Dichloro-4-hydroxy-2-methyl-phenyl)-thioureido]-phenyl}-acetamide]: the IC50 in the assay with HCMV wild-type is greater than 50 µg/mL; in the assay on HSV-1 it was greater than 50 µg/mL; in the assay with VZV strain Ellen, greater than 10 µg/mL. Also, the inhibition at 10 µg/mL in the assay on VZV strain Ellen was 29%.

For the compound `COc1cc(OCCO)c(NC(=S)Nc2ccc(NC(C)=O)cc2)cc1Cl` [Example 214, N-(4-{3-[5-Chloro-2-(2-hydroxy-ethoxy)-4-methoxy-phenyl]-thioureido}-phenyl)-acetamide], the values for the IC50 with HCMV wild-type, in the assay on HSV-1 and in the assay on VZV strain Ellen were greater than 10 µg/mL, 20 µg/mL (≈ 48.8 µM) and greater than 10 µg/mL, respectively. Further, in the assay with VZV strain Ellen, the inhibition at 10 µg/mL came to 20%.

With `CCN(c1ccc(NC(=S)Nc2ccc(NC(C)=O)cc2)cc1Cl)C1CCCCC1` [Example 267, N-(4-{3-[3-Chloro-4-(cyclohexyl-ethyl-amino)-phenyl]-thioureido}-phenyl)-acetamide], the IC50 in the assay with HCMV wild-type, in the assay on HSV-1 and in the assay on VZV strain Ellen was greater than 10 µg/mL in each case. The inhibition at 10 µg/mL in the assay with VZV strain Ellen was 25%.

Consider `COc1cc(OC)c(NC(=S)Nc2ccc(NC(C)=O)cc2)cc1Br` [Example 150, N-{4-[3-(5-Bromo-2,4-dimethoxy-phenyl)-thioureido]-phenyl}-acetamide], for which the results for the IC50 in the assay on HCMV wild-type, with HSV-1 and with VZV strain Ellen were 40 µg/mL (≈ 94.3 µM), 9 µg/mL (≈ 21.2 µM) and greater than 10 µg/mL, respectively. The inhibition at 10 µg/mL with VZV strain Ellen was 3%.

Regarding `CC(=O)Nc1ccc(NC(=S)Nc2ccc([N+](=O)[O-])cc2)cc1` [Example 879, N-{4-[3-(4-Nitro-phenyl)-thioureido]-phenyl}-acetamide], the IC50 is greater than 10 µg/mL with HCMV wild-type, greater than 50 µg/mL in the assay on HSV-1 and greater than 10 µg/mL in the assay with VZV strain Ellen. Moreover, the inhibition at 10 µg/mL in the assay on VZV strain Ellen was determined as 16%.

Turning to `CC(=O)Nc1ccc(NC(=S)Nc2cc(Cl)c(Oc3ccccc3)c(Cl)c2)cc1` [Example 885, N-{4-[3-(3,5-Dichloro-4-phenoxy-phenyl)-thioureido]-phenyl}-acetamide], the IC50 was greater than 10 µg/mL with HCMV wild-type, 15 µg/mL (≈ 33.6 µM) in the assay on HSV-1 and greater than 10 µg/mL in the assay with VZV strain Ellen. Also, the inhibition at 10 µg/mL in the assay on VZV strain Ellen was determined as 45%.

As for `CCN(CC)CC(=O)Nc1ccc(NC(=S)Nc2ccc(NC(C)=O)cc2)cc1Cl` [Example 412, N-{4-[3-(4-Acetylamino-phenyl)-thioureido]-2-chloro-phenyl}-2-diethyl-amino-acetamide], the “IC50 Ug/ml HCMV” value in the assay with HCMV wild-type was greater than 10 Ug/ml. Moreover, the “IC50 Ug/ml HSV” value with HSV-1 was greater than 10 Ug/ml. Moreover, in the assay on VZV strain Ellen, the “% inhibition 10 ug/ml VZV” value is given as 29% and the “IC50 Ug/ml VZV” value was greater than 10 Ug/ml.

For `CC(=O)Nc1ccc(NC(=S)Nc2ccc(C(C)O)c(Cl)c2)cc1` (centres unmarked) [Example 862, N-(4-{3-[3-Chloro-4-(1-hydroxy-ethyl)-phenyl]-thioureido}-phenyl)-acetamide], the IC50 in the assay with HCMV wild-type was 2 µg/mL (≈ 5.5 µM); in the assay with HSV-1, greater than 10 µg/mL; in the assay with VZV strain Ellen, greater than 10 µg/mL. For the same compound, the inhibition at 10 µg/mL in the assay with VZV strain Ellen turned out to be 10%.

Turning to `CC(=O)Nc1ccc(NC(=S)Nc2ccc(N(C)C)c(Cl)c2)cc1` [Example 240, N-{4-[3-(3-Chloro-4-dimethylamino-phenyl)-thioureido]-phenyl}-acetamide], the IC50 with HCMV wild-type was 1.5 µg/mL (≈ 4.13 µM); with HSV-1, greater than 50 µg/mL; in the assay with VZV strain Ellen, greater than 10 µg/mL. Besides, the inhibition at 10 µg/mL in the assay on VZV strain Ellen was 5%.

As for `COC(=O)COc1c(Cl)cc(NC(=S)Nc2ccc(NC(C)=O)cc2)cc1Cl` [Example 883, {4-[3-(4-Acetylamino-phenyl)-thioureido]-2,6-dichloro-phenoxy}-acetic acid methyl ester], the IC50 in the assay on HCMV wild-type was greater than 10 µg/mL; in the assay on HSV-1, 50 µg/mL (≈ 113 µM); in the assay with VZV strain Ellen it was greater than 10 µg/mL. Besides, the inhibition at 10 µg/mL in the assay on VZV strain Ellen was found to be 17%.

The values above are taken from patent US6335350B1, “Acetamide and substituted acetamide-containing thiourea inhibitors of herpes viruses” (American Home Products Corporation, priority 1998, dated 2002).
